Results as given in US7557110B2, “Pyrazolo[1,5-A] pyrimidine derivatives” (Teijin Pharma Limited, priority 2003, dated 2009).
Like-named read-outs stand apart in the source and are kept apart here.

Columns and labels:
CDK-2 = CDK-2 (Homo sapiens, UniProt P24941); assay: CDK-2 enzyme activity inhibition (33P-ATP filter plate kinase assay); format: biochemical
Excerpt: [General Procedure for Measurement of CDK-2 Enzyme Activity Inhibition]

CDK-1 = CDK-1 (Homo sapiens, UniProt P06493); assay: CDK-1 enzyme activity inhibition (33P-ATP filter plate kinase assay)
Sequence of CDK-1 (P06493 whole entry, species assumed): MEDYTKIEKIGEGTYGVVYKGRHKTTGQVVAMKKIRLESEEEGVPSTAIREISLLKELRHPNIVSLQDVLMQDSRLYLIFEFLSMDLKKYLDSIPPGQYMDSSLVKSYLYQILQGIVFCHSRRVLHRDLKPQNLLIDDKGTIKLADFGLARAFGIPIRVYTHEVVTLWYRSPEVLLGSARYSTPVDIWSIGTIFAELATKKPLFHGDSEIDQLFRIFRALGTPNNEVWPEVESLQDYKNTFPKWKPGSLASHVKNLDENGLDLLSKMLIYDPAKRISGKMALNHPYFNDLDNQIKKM
Sequence of CDK-1 (P14635 whole entry partner, species assumed): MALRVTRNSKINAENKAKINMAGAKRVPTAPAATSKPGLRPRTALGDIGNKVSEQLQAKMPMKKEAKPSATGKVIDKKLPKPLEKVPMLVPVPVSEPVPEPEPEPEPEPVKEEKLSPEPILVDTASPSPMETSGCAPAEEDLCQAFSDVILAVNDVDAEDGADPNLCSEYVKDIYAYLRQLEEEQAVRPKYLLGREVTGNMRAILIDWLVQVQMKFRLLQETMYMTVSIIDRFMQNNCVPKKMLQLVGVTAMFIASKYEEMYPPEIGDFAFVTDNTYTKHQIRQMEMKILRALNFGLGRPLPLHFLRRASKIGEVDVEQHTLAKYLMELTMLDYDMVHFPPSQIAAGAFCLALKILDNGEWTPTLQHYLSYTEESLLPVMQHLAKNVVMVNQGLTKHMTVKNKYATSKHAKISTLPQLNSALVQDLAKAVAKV
Protocol: [General Procedure for Measurement of CDK-1 Enzyme Activity Inhibition]
Compounds were dissolved in DMSO at a concentration of 10 mM and stored in aliquots at −20° C. Compounds in DMSO from these stock aliquots were diluted in DMSO to produce the required range of 30× stock solutions. These stock solutions were then subjected to 1:3 dilutions in order to prepare the required range of 10× stock solutions and 5 μL of each solution was used per 50 μL reaction.
The kinase reaction was conducted in a round-bottomed polypropylene 96-well plate. CDK-1 was diluted to 0.5 U/μL in diluent buffer (50 mM Tris/HCl. pH7.5, 0.1 mM EGTA, 0.1% (v/v) β-mercaptoethanol, 1 mg/mL BSA). 5 μL compound or 30% DMSO was added to each well followed by 25 μL substrate cocktail (final concentration: 10 μM ATP, 50 μM peptide ([sequence]), 0.5 μCi ^33P-γ-ATP in 50 mM Tris-HCl (pH 7.5), 1 mM EGTA, 2 mM DTT, 10 mM MgCl2, 0.01% Brij-35). The reaction was initiated with the addition of 20 μL enzyme solution per well or 20 μL of diluent buffer without enzyme. The plate was shaken for 10 seconds and then left at room temperature for 15 minutes. The reaction was terminated with 50 μL 150 mM phosphoric acid. 90 μL of the reaction mixture was then transferred into a 96-well P81 filter plate (Whatmann) and incubated at room temperature for 5 minutes. The filter plate was then washed 4 times with 200 μL 75 mM phosphoric acid per well on a plate vacuum manifold (Millipore) and dried in an oven for 2-3 hours. Packard MicroScint ‘0’ (30 μL) was then added to each well, the plate was miffed for 30 minutes and subjected to liquid scintillation counting on a Packard TopCount.

MAPKAP-K2 = MAPKAP-K2 (Homo sapiens, UniProt P49137); assay: MAPKAP-K2 enzyme activity inhibition (33P-ATP filter plate kinase assay); format: biochemical; details: MAPKAP-K2 inhibitory activity; assays conducted at typically 1-100 μM; note: key: +: active; ++: more active; +++: very active
Sequence of MAPKAP-K2 (P49137 whole entry): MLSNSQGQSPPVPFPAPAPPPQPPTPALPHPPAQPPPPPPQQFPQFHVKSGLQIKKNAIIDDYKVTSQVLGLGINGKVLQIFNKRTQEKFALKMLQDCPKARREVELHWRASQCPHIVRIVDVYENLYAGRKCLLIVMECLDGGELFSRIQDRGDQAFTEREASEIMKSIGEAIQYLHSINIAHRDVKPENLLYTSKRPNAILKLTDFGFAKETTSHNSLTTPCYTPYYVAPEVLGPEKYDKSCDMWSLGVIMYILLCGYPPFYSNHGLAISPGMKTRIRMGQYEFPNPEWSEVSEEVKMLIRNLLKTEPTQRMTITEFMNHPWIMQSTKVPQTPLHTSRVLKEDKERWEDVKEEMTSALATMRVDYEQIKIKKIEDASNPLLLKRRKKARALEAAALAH

[1] = read-out: CDK-2 inhibition IC50

SMILES | IC50 (CDK-2; [1]) | melting point | IC50 (CDK-1) | activity (efficacy against MAPKAP-K2) (MAPKAP-K2) | IC50 (CDK-2)
CCc1c(N[C@H]2CC[C@H](N)CC2)nc2ccnn2c1Nc1ccc(OCc2ccccc2)cc1 [Compound 35] | < 100 µM | 120 to 122 °C | < 100 µM | +++ | –
CCc1c(N[C@H]2CC[C@H](N)CC2)nc2ccnn2c1Nc1ccc(OC)cc1 [Compound 28] | < 100 µM | – | < 100 µM | +++ | –
CCc1c(N[C@H]2CC[C@H](N)CC2)nc2ccnn2c1Nc1ccc(Oc2ccccc2)cc1 [Compound 33] | – | 147 to 149 °C | < 100 µM | +++ | –
CCOC(=O)c1cnn2c(Nc3ccc(F)c(Cl)c3)cc(N[C@H]3CC[C@H](N)CC3)nc12 [Compound 9] | – | 221 to 223 °C | < 100 µM | – | –
Cc1c(N[C@H]2CC[C@H](N)CC2)nc2ccnn2c1Nc1ccccc1Cl [Compound 15] | – | – | < 100 µM | +++ | < 100 µM
CCc1c(N[C@H]2CC[C@H](N)CC2)nc2ccnn2c1Nc1ccc(F)c(Cl)c1 [Compound 23] | – | – | < 100 µM | +++ | < 100 µM
CCc1c(N[C@H]2CC[C@H](N)CC2)nc2ccnn2c1Nc1ccccc1C [Compound 29] | – | 176 to 178 °C | < 100 µM | +++ | –
CCc1c(N[C@H]2CC[C@H](N)CC2)nc2ccnn2c1Nc1ccc(C)c(C)c1 [Compound 30] | – | – | < 100 µM | +++ | –
CCOc1ccc(Nc2c(CC)c(N[C@H]3CC[C@H](N)CC3)nc3ccnn23)cc1 [Compound 31] | < 100 µM | 131 to 133 °C | < 100 µM | +++ | –
CCCc1c(N[C@H]2CC[C@H](N)CC2)nc2ccnn2c1Nc1ccc(F)c(Cl)c1 [Compound 11] | – | – | < 100 µM | +++ | < 100 µM
N[C@H]1CC[C@H](Nc2nc3ccnn3c(Nc3ccc(F)c(Cl)c3)c2Cc2ccccc2)CC1 [Compound 24] | – | – | < 100 µM | +++ | –
C=CCc1c(N[C@H]2CC[C@H](N)CC2)nc2ccnn2c1Nc1ccccc1Cl [Compound 17] | – | 153 to 155 °C | < 100 µM | +++ | –
CSc1ccc(Nc2c(C)c(N[C@H]3CC[C@H](N)CC3)nc3ccnn23)cc1 [Compound 65] | < 100 µM | 185 to 187 °C | – | +++ | –
CCc1c(N[C@H]2CC[C@H](N)CC2)nc2ccnn2c1Nc1ccc(Cl)cc1 [Compound 26] | – | – | < 100 µM | +++ | –
CCc1c(N[C@H]2CC[C@H](N)CC2)nc2ccnn2c1Nc1ccc(I)cc1 [Compound 168] | < 100 µM | 104 to 106 °C | – | ++ | –
Cc1c(N[C@H]2CC[C@H](N)CC2)nc2ccnn2c1Nc1cccc(Br)c1 [Compound 77] | < 100 µM | 215 to 216 °C | – | +++ | –
N[C@H]1CC[C@H](Nc2cc(Nc3ccc(F)c(Cl)c3)n3ncc(Br)c3n2)CC1 [Compound 2] | – | – | < 100 µM | ++ | < 100 µM
CCCCOc1ccc(Nc2c(CC)c(N[C@H]3CC[C@H](N)CC3)nc3ccnn23)cc1 [Compound 56] | < 100 µM | 144 to 148 °C | – | +++ | –
Cc1c(N[C@H]2CC[C@H](N)CC2)nc2ccnn2c1Nc1ccc(F)c(Cl)c1 [Compound 10] | – | – | < 100 µM | +++ | < 100 µM
Cc1c(N[C@H]2CC[C@H](N)CC2)nc2ccnn2c1Nc1cccc(Cl)c1 [Compound 85] | < 100 µM | 209 to 212 °C | – | +++ | –
Cc1nc2ccc(Nc3c(C)c(N[C@H]4CC[C@H](N)CC4)nc4ccnn34)cc2s1 [Compound 155] | < 100 µM | 210 to 215 °C | – | +++ | –
CCc1c(N[C@H]2CC[C@H](N)CC2)nc2ccnn2c1Nc1ccc(SC)cc1 [Compound 36] | – | 190 to 192 °C | < 100 µM | +++ | –
NC1CCC(Nc2nc3ccnn3c(Nc3ccc(F)c(Cl)c3)c2-c2ccccc2)CC1 (stereo not shown) [Compound 12] | – | – | < 100 µM | +++ | < 100 µM
CCc1c(N[C@H]2CC[C@H](N)CC2)nc2ccnn2c1Nc1ccc(OC)c(C(F)(F)F)c1 [Compound 113] | < 100 µM | 181 to 183 °C | – | ++ | –
CCc1c(N[C@H]2CC[C@H](N)CC2)nc2ccnn2c1Nc1ccccc1Cl [Compound 16] | – | – | < 100 µM | +++ | < 100 µM
C=CCc1c(N[C@H]2CC[C@H](N)CC2)nc2ccnn2c1Nc1ccc(F)c(Cl)c1 [Compound 19] | – | 176 to 178 °C | < 100 µM | +++ | –
N[C@H]1CC[C@H](Nc2cc(Nc3ccc(F)c(Cl)c3)n3ncc(I)c3n2)CC1 [Compound 49] | < 100 µM | 153 to 155 °C | – | ++ | –
CCOc1ccc(Nc2c(C)c(N[C@H]3CC[C@H](N)CC3)nc3ccnn23)cc1 [Compound 32] | < 100 µM | – | < 100 µM | +++ | –
